For data set [1] the following is noted: cited from earlier work.
The subject of another data set is migraine (편두통). The conditions noted are these: cited from earlier work; for pain freedom at 2 h / pain relief at 2 h: lowest oral dose; for pain freedom: nasal zolmitriptan.
Another data set in a line: Zolmitriptan pKa. In kind it is physicochemical.

Structures are written as SMILES. Like-named read-outs stand apart in the source and are kept apart here. Where only a bound is given, the exact number is not on record here.

Consider `CNCCc1c[nH]c2ccc(C[C@H]3COC(=O)N3)cc12` [N-데스메틸 졸미트립탄], for which, in data set [1] (in vivo), the “metabolite concentration relative to zolmitriptan concentration” value was 2/3.
As to `CNS(=O)(=O)CCc1ccc2[nH]cc(C3CCN(C)CC3)c2c1` [나라트립탄], in the data set with migraine (편두통), the “pain freedom at 2 h” value is 18% and the “pain relief at 2 h” value is reported as 49%.
A word on the Tmax: it is the time at which the peak concentration occurs. Consider `CNS(=O)(=O)Cc1ccc2[nH]cc(CCN(C)C)c2c1` [수마트립탄], for which the Tmax in data set [1] (oral tablet) is ~2 h. Also, the oral bioavailability in data set [1] (oral, as succinate) is reported as ~15%. Moreover, the onset of action in the data set on migraine (편두통) (injected) was ≤ 10 min.
On to `CN(C)CCc1c[nH]c2ccc(C[C@H]3COC(=O)N3)cc12` [졸미트립탄], for which, in data set [1] (nasal administration), the time of peak concentration (Tmax) was ~1.5 h. Further, the “pain freedom at 2 h” value in the data set on migraine (편두통) is listed as 29%. Besides, the “pain relief at 2 h” value in the data set on migraine (편두통) is on record as 62%. For the same molecule, the pain freedom with migraine (편두통) (1 h) is ~10%; in the data set with migraine (편두통) (2 h), < 25%; in the data set with migraine (편두통) (4 h), < 40%. Further, the “efficacy and tolerability (in words)” value with migraine (편두통) (placebo-controlled clinical trials) was “효과적이고 우수한 내약성을 갖는 것으로 보여졌다”. Also, in the data set “Zolmitriptan pKa”, the “pKa (weak base)” value amounted to 9.6.
